Where two headings read alike, the source gives them in different places.
Test system: 134 cancer cell lines
Assay: Cell viability assay (ATPlite, 72 hours), IC50 on cancer cell line panel

With COC(=O)N[C@@H](C)CNc1nccc(-c2cn(C(C)C)nc2-c2cc(Cl)cc(NS(C)(=O)=O)c2F)n1 [encorafenib] as the compound, how does the IC50 (HEC-6, read-out: IC50 in cell proliferation assay, HEC-6 cell line (EGFR p.A289V)) read?
Its IC50 is 1240 nM.

What about the IC50 (Homo sapiens, 769-P, read-out: IC50 in cell proliferation assay, cell line 769-P) of the same compound?
Its IC50 is 1190 nM.

What about the IC50 (Homo sapiens, 786-0, read-out: IC50 in cell proliferation assay, cell line 786-O) of the same compound?
The IC50 was 1390 nM.

What about the IC50 (Homo sapiens, A 172, read-out: IC50 in cell proliferation assay, cell line A-172) of the same compound?
The IC50 was 1780 nM.

What about the IC50 (Homo sapiens, A204, read-out: IC50 in cell proliferation assay, cell line A-204) of the same compound?
Its IC50 is 1050 nM.

And the IC50 (Homo sapiens, A498, read-out: IC50 in cell proliferation assay, cell line A-498)?
The IC50 was 527 nM.

What about the IC50 (Homo sapiens, A549, read-out: IC50 in cell proliferation assay, cell line A-549) of the same compound?
The IC50 was 1220 nM.

What about the IC50 (Homo sapiens, A704, read-out: IC50 in cell proliferation assay, cell line A-704) of the same compound?
Its IC50 is 5460 nM.

What about the IC50 (Homo sapiens, A-375, read-out: IC50 in cell proliferation assay, cell line A-375 (BRAF p.V600E)) of the same compound?
The IC50 was 9 nM.

What about the IC50 (Homo sapiens, A-427, read-out: IC50 in cell proliferation assay, cell line A-427) of the same compound?
The IC50 was 840 nM.

And the IC50 (Homo sapiens, ACHN, read-out: IC50 in cell proliferation assay, cell line ACHN)?
Its IC50 is 624 nM.

What about the IC50 (Homo sapiens, AN3-CA, read-out: IC50 in cell proliferation assay, cell line AN3-CA (FGFR2 p.N549K)) of the same compound?
The IC50 was 623 nM.

And the IC50 (Homo sapiens, ASPC1, read-out: IC50 in cell proliferation assay, cell line AsPC-1)?
Its IC50 is 2880 nM.

What about the IC50 (Homo sapiens, AU565, read-out: IC50 in cell proliferation assay, cell line AU565 (ERBB2 amplification)) of the same compound?
The IC50 was 421 nM.

And the IC50 (Homo sapiens, BT-20, read-out: IC50 in cell proliferation assay, cell line BT-20)?
Its IC50 is > 31600 nM.

What about the IC50 (Homo sapiens, BT-474, read-out: IC50 in cell proliferation assay, cell line BT-474 (ERBB2 amplification)) of the same compound?
Its IC50 is > 31600 nM.

What about the IC50 (Homo sapiens, BT-549, read-out: IC50 in cell proliferation assay, cell line BT-549) of the same compound?
The IC50 was 1020 nM.

And the IC50 (Homo sapiens, BXPC-3, read-out: IC50 in cell proliferation assay, cell line BxPC-3)?
Its IC50 is 408 nM.

And the IC50 (Homo sapiens, C-33-A, read-out: IC50 in cell proliferation assay, cell line C-33 A)?
Its IC50 is 922 nM.

And the IC50 (Homo sapiens, CAL-27, read-out: IC50 in cell proliferation assay, cell line CAL-27)?
Its IC50 is 6980 nM.

And the IC50 (Homo sapiens, CCF-STTG1, read-out: IC50 in cell proliferation assay, cell line CCF-STTG1)?
Its IC50 is > 31600 nM.

And the IC50 (Homo sapiens, CCRF-CEM, read-out: IC50 in cell proliferation assay, cell line CCRF-CEM)?
The IC50 was > 31600 nM.

What about the IC50 (Homo sapiens, COLO 205, read-out: IC50 in cell proliferation assay, cell line COLO 205 (BRAF p.V600E)) of the same compound?
The IC50 was 3.32 nM.

And the IC50 (Homo sapiens, COLO-829, read-out: IC50 in cell proliferation assay, cell line COLO 829 (BRAF p.V600E))?
Its IC50 is 9 nM.

What about the IC50 (Homo sapiens, DLD-1, read-out: IC50 in cell proliferation assay, cell line DLD-1) of the same compound?
The IC50 was 1650 nM.

And the IC50 (Homo sapiens, DU-4475, read-out: IC50 in cell proliferation assay, cell line DU4475 (BRAF p.V600E))?
Its IC50 is 8 nM.

And the IC50 (Homo sapiens, Daoy, read-out: IC50 in cell proliferation assay, cell line Daoy)?
Its IC50 is > 31600 nM.

And the IC50 (Homo sapiens, DoTc2-4510, read-out: IC50 in cell proliferation assay, cell line DoTc2 4510)?
The IC50 was 3280 nM.

And the IC50 (Homo sapiens, EOL1, read-out: IC50 in cell proliferation assay, cell line EoL-1 (FIP1L1-PDGFRA))?
Its IC50 is 2340 nM.

What about the IC50 (Homo sapiens, FaDu, read-out: IC50 in cell proliferation assay, cell line FaDu) of the same compound?
Its IC50 is 964 nM.

And the IC50 (Homo sapiens, G-361, read-out: IC50 in cell proliferation assay, cell line G-361 (BRAF p.V600E))?
The IC50 was 13 nM.

And the IC50 (Homo sapiens, HCC827, read-out: IC50 in cell proliferation assay, cell line HCC827 (EGFR exon19del))?
The IC50 was 893 nM.

What about the IC50 (Homo sapiens, HCC4006, read-out: IC50 in cell proliferation assay, cell line HCC4006 (EGFR exon19del)) of the same compound?
The IC50 was > 31600 nM.

And the IC50 (Homo sapiens, HCT-15, read-out: IC50 in cell proliferation assay, cell line HCT 15)?
The IC50 was 2940 nM.

What about the IC50 (Homo sapiens, HCT-116, read-out: IC50 in cell proliferation assay, cell line HCT 116) of the same compound?
The IC50 was 1150 nM.

What about the IC50 (Homo sapiens, HEC-1, read-out: IC50 in cell proliferation assay, HEC-1 cell line) of the same compound?
Its IC50 is 1570 nM.

And the IC50 (Homo sapiens, HEC-1B, read-out: IC50 in cell proliferation assay, HEC-1-B cell line (EGFR p.A864V))?
Its IC50 is 2100 nM.

And the IC50 (Homo sapiens, HL-60, read-out: IC50 in cell proliferation assay, HL-60 cell line)?
Its IC50 is 1800 nM.

What about the IC50 (Homo sapiens, HT, read-out: IC50 in cell proliferation assay, HT cell line) of the same compound?
Its IC50 is > 31600 nM.

What about the IC50 (Homo sapiens, HT-1080, read-out: IC50 in cell proliferation assay, HT-1080 cell line) of the same compound?
The IC50 was 381 nM.

And the IC50 (Homo sapiens, Hs746T, read-out: IC50 in cell proliferation assay, Hs 746.T cell line (MET exon14skip + amplification))?
Its IC50 is 1120 nM.

And the IC50 (Homo sapiens, Hs-578T, read-out: IC50 in cell proliferation assay, Hs 578T cell line)?
The IC50 was 1030 nM.

And the IC50 (Homo sapiens, HuTu80, read-out: IC50 in cell proliferation assay, HuTu 80 cell line)?
The IC50 was 1120 nM.

And the IC50 (Homo sapiens, J82, read-out: IC50 in cell proliferation assay, J82 cell line)?
Its IC50 is 949 nM.

What about the IC50 (Homo sapiens, Jurkat E6.1, read-out: IC50 in cell proliferation assay, Jurkat E6.1 cell line) of the same compound?
Its IC50 is 1040 nM.

And the IC50 (Homo sapiens, K562, read-out: IC50 in cell proliferation assay, K-562 cell line)?
Its IC50 is 27600 nM.

And the IC50 (Homo sapiens, KATO III, read-out: IC50 in cell proliferation assay, KATO III cell line (FGFR2 amplification))?
The IC50 was 1510 nM.

And the IC50 (Homo sapiens, KG-1, read-out: IC50 in cell proliferation assay, KG-1 cell line (FGFR1OP2-FGFR1))?
Its IC50 is 1440 nM.

What about the IC50 (Homo sapiens, KLE, read-out: IC50 in cell proliferation assay, KLE cell line) of the same compound?
Its IC50 is 822 nM.

And the IC50 (Homo sapiens, KMS-11, read-out: IC50 in cell proliferation assay, KMS-11 cell line (FGFR3 p.Y373C))?
The IC50 was 3390 nM.

And the IC50 (Homo sapiens, KU812, read-out: IC50 in cell proliferation assay, Ku812 cell line)?
The IC50 was 2570 nM.

What about the IC50 (Homo sapiens, Kasumi 1, read-out: IC50 in cell proliferation assay, Kasumi-1 cell line (KIT p.N822K)) of the same compound?
The IC50 was 3020 nM.

What about the IC50 (Homo sapiens, LC-2-ad, read-out: IC50 in cell proliferation assay, LC-2/ad cell line (CCDC6-RET)) of the same compound?
The IC50 was 1530 nM.

And the IC50 (Homo sapiens, LNCaP-Clone-FGC, read-out: IC50 in cell proliferation assay, LNCaP clone FGC cell line)?
Its IC50 is 2150 nM.

And the IC50 (Homo sapiens, LS174T, read-out: IC50 in cell proliferation assay, LS174T cell line)?
The IC50 was 1700 nM.

What about the IC50 (Homo sapiens, LS-411N, read-out: IC50 in cell proliferation assay, LS411N cell line (BRAF p.V600E)) of the same compound?
Its IC50 is 6 nM.

And the IC50 (Homo sapiens, LoVo, read-out: IC50 in cell proliferation assay, LoVo cell line)?
Its IC50 is 2500 nM.

What about the IC50 (Homo sapiens, MCF7, read-out: IC50 in cell proliferation assay, MCF-7 cell line) of the same compound?
The IC50 was > 31600 nM.

And the IC50 (Homo sapiens, MDA-MB-231, read-out: IC50 in cell proliferation assay, MDA-MB-231 cell line)?
The IC50 was 2420 nM.

What about the IC50 (Homo sapiens, MDA-MB-453, read-out: IC50 in cell proliferation assay, MDA-MB-453 cell line) of the same compound?
Its IC50 is > 31600 nM.

What about the IC50 (Homo sapiens, MDA-MB-468, read-out: IC50 in cell proliferation assay, MDA-MB-468 cell line) of the same compound?
The IC50 was > 31600 nM.

What about the IC50 (Homo sapiens, MG-63, read-out: IC50 in cell proliferation assay, MG-63 cell line) of the same compound?
Its IC50 is > 31600 nM.

What about the IC50 (Homo sapiens, MIA PaCa-2, read-out: IC50 in cell proliferation assay, MIA PaCa-2 cell line) of the same compound?
The IC50 was 1240 nM.

And the IC50 (Homo sapiens, MKN-45, read-out: IC50 in cell proliferation assay, MKN45 cell line (MET amplification))?
Its IC50 is 3810 nM.

And the IC50 (Homo sapiens, MOLM-13, read-out: IC50 in cell proliferation assay, MOLM-13 cell line (FLT3 ITD))?
The IC50 was 1070 nM.

What about the IC50 (Homo sapiens, MOLT-4, read-out: IC50 in cell proliferation assay, MOLT-4 cell line) of the same compound?
Its IC50 is 1670 nM.

What about the IC50 (Homo sapiens, MV4-11, read-out: IC50 in cell proliferation assay, MV4-11 cell line (FLT3 ITD)) of the same compound?
The IC50 was 2280 nM.

Reference: paper PMC9516332 (Frontiers in Oncology, 2022)
